Measurements as given in publication PMC8763382, “2-Sulfonylpyrimidines as Privileged Warheads for the Development of S. aureus Sortase A Inhibitors” (Frontiers in Molecular Biosciences, 2022).
“And” between values parts separate entries of the source, which are not always exact repeats. Equal entries are not always repeated.

Tests used:
[1] = tested on: SrtA; design: method as in Jaudzems et al., 2020; details: after 16 h of incubation with 100 µM inhibitor; ref Jaudzems et al., 2020; cited from earlier work
[2] = molecular target: T1, S. aureus SrtA (Staphylococcus aureus, UniProt Q2FV99); experiment: fluorometric enzyme assay of SrtA transpeptidation (Abz-LPETG-Dap(Dnp)-OH substrate); type: biochemical; details: for k inact: maximum inactivation rate; for k inact / KI (inactivation) / k 2nd: Tris pH 7.50, n. i. = <20% inhibition at 100 µM; for KI (inactivation): read-out: KI, dissociation constant of the reversible enzyme-inhibitor complex; for k 2nd: second-order rate of inhibition
T1 construct: His tag (inferred from IMAC on a HisTrap column); made in house; host or cells: E. coli BL21 Gold (DE3)
T1 sequence (Q2FV99 60-206): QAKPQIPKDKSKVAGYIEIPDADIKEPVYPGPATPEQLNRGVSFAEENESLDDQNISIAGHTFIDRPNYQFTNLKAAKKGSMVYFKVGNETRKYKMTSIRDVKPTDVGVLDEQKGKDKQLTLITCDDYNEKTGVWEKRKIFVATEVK
Protocol: To evaluate the inhibition potency of the parent sulfonylpyrimidine 4, this compound was tested by means of a fluorometric enzyme assay with recombinantly expressed S. aureus SrtA ([Schmohl et al., 2017b]) and Abz-LPETG-Dap (Dnp)-OH as substrate. […] To verify the irreversible mode of inhibition, we determined the maximum inactivation rate k inact, the dissociation constant of the reversible enzyme-inhibitor complex KI, and the second-order rate of inhibition k 2nd. For compound 4, a k inact = 0.00065 s^−1 was found, which is very low compared to other covalent SrtA inhibitors ([Chan et al., 2017]; [Barthels et al., 2020]; [Jaudzems et al., 2020]).
Inhibition assays of S. aureus SrtA transpeptidation reactions were performed as described previously ([Barthels et al., 2020]). Briefly, the recombinantly expressed SrtA (final concentration: 1 µM) was incubated in assay buffer (50 mM Tris, 150 mM NaCl, 5 mM CaCl2, pH 7.50) with 25 µM of the FRET-pair substrate Abz-LPETG-Dap (Dnp)-OH (Genscript, Piscataway, New Jersey) and 0.5 mM tetraglycine (Sigma Aldrich, St. Louis, Missouri). Inhibitors were added from DMSO stocks. Reactions were initiated by addition of SrtA and monitored for 30 min at 30°C in an Infinite M200 Pro plate reader with λex 320 nm/λem 430 nm (Tecan, Männedorf, Switzerland). Three technical replicates were carried out for each inhibitor in black flat-bottom 96-well plates (Greiner bio-one, Kremsmünster, Austria). The enzyme kinetics of irreversible SrtA inactivation were analyzed as described previously ([Barthels et al., 2020]).

[3] = molecular target: T2, cathepsin L (hCatL) (Homo sapiens, UniProt P07711); experiment: protease selectivity panel, fluorometric assay cathepsin L; type: biochemical; details: 100 µM inhibitor; read-out: CatL inhibition relative to the DMSO control
T2 construct: purchased Calbiochem, Merck Millipore
T2 sequence (P07711 114-333): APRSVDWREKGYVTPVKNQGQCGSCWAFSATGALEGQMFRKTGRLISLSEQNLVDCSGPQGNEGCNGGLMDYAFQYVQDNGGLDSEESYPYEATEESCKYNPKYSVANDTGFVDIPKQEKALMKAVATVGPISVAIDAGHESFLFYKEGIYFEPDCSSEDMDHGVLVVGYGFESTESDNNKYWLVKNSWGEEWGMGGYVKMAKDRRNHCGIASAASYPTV
Protocol: (§1) To investigate how these sulfonylpyrimidines affect the activity of other cysteine and serine proteases, a selectivity panel was constructed from a matrix of 6 diverse sulfonylpyrimidines and 6 different proteases. The compounds were assayed at a final compound concentration of 100 µM for the cysteine proteases human cathepsin B (hCatB), cathepsin L (hCatL), and T. brucei rhodesain (Rd). Furthermore, the serine proteases NS2B-NS3 from Zika virus (ZIKV), the homologous protease from Dengue virus (DENV), and the human protease urokinase plasminogen activator (uPA) were tested for their susceptibility.
(§2) Fluorometric assays of the ZIKV/DENV NS2B/NS3 protease were performed as described previously ([Maus et al., 2021]). The assay was carried out in triplicates at 25°C in assay buffer (50 mM Tris, pH 9.0, 20% glycerol (v/v), and 1 mM CHAPS). 100 µM Boc-Gly-Arg-Arg-AMC (Bachem, Bubendorf, Switzerland) was used as a substrate. Fluorometric assays for cathepsin B, cathepsin L, and rhodesain (Calbiochem, Merck Millipore, Burlington, Massachusetts) were performed as described previously ([Klein et al., 2020a]). Cbz-Phe-Arg-AMC (Bachem, Bubendorf, Switzerland) was used as substrate (100 μM for cathepsin B, 6.5 μM for cathepsin L, and 10 µM for rhodesain). Fluorometric assays for urokinase plasminogen activator were performed as described previously ([Angelini et al., 2012]). 240 µM Cbz-Gly-Arg-Arg-AMC (Bachem, Bubendorf, Switzerland) was used as a substrate.

[4] = molecular target: T3, human cathepsin B (hCatB) (Homo sapiens, UniProt P07858); experiment: protease selectivity panel, fluorometric assay cathepsin B; type: biochemical; details: 100 µM inhibitor; read-out: CatB inhibition relative to the DMSO control
T3 construct: purchased Calbiochem, Merck Millipore
Protocol: as §1, §2

[5] = design: method as in Bauer et al.; details: ref Bauer et al.; cited from earlier work
[6] = molecular target: T4, NS2B-NS3 from Zika virus (ZIKV) (Zika virus, UniProt Q32ZE1); experiment: protease selectivity panel, fluorometric assay ZIKV NS2B/NS3 protease; type: biochemical; details: 100 µM inhibitor; read-out: ZIKV inhibition relative to the DMSO control
T4 construct: The ZIKV NS2B/NS3 protease is a serine protease and contains two non-catalytic cysteine residues
T4 sequence (Q32ZE1 1499-1676): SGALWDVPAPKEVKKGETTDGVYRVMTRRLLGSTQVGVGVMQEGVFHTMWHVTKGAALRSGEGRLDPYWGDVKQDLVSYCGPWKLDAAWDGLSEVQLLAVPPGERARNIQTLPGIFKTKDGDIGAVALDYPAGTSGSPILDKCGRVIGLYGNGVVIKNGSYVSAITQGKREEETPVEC
T4 sequence (Q32ZE1 1421-1460): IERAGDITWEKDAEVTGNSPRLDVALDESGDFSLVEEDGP
Protocol: as §1, §2

[7] = cysteine reactivity assay (competitive fluorescence assay with probe 8); type: physicochemical
Text: In order to study the kinetics of sulfonylpyrimidines reacting with free cysteine in solution, a strategy for a competitive fluorescence-based assay was adapted from previous works ([Epps and Taylor, 2001]; [Sameshima et al., 2017]). […] The reaction of probe 8 with cysteine liberates 4-methylumbelliferone as a fluorometrically detectable product (Figure 7A), and thus, the fluorescence increase can be described by the second-order rate constant k probe (Equation 1).
Upon the addition of competitive and irreversible cysteine modifiers such as sulfonylpyrimidines, the fluorescence increase of the probe reaction was hyperbolically attenuated (Figure 7B). According to the conceptual deduction described previously ([Epps and Taylor, 2001]; [Sameshima et al., 2017]), the experimental fluorescence curves can be analyzed by nonlinear regression as first-order reaction progress curves (Equation 2). The parameter k obs describes the curvature corresponding to the sum of the competing kinetics (Equation 3). Under the assumptions that 1) the competitive reaction between sulfonylpyrimidines vs. probe with cysteine is started by simultaneous addition, and 2) sulfonylpyrimidines are added at a much higher concentration than cysteine (5 µM) and the probe (5 µM), the k obs values depend substantially on the k chem value. The compound-specific second-order inactivation parameter k chem can be determined by linear regression from the k obs values of the dilution series (Equation 4). d[FL]/dt=kprobe[Cys][probe] (1) FL=[Cys]total⋅kprobe [probe]/kprobe [probe] + kchem [sulfonylpyrimidine](1−e^−kobs⋅t) (2) kobs=kchem [sulfonylpyrimidine]+kprobe [probe] (3) kchem=kobs/[sulfonylpyrimidine] (4)
Kinetic characterization of the reaction between sulfonylpyrimidines and cysteine was performed in degassed phosphate buffer (1×PBS, pH 7.5) or individual cases in bicarbonate buffer (20 mM NaHCO3, 100 mM NaCl, pH 7.5). Three technical replicates were carried out for each sulfonylpyrimidine in black flat-bottom 96-well plates. For this purpose, 50 µL buffered solution (including 5% (v/v) DMSO) of the respective sulfonylpyrimidine derivative (final: 250–3 µM) and the cysteine reactive probe 8 (final: 5 µM) were premixed. Reactions were initiated by the addition of 50 µL cysteine (final: 5 µM), dissolved in the respective buffer, and monitored for 30 min at 30°C in an Infinite M200 Pro plate reader with λex 380 nm/λem 460 nm. To calculate k obs and k chem values, fluorescence curves were fitted using the same non-linear regression as for in vitro inhibition of SrtA ([Barthels et al., 2020]).

[8] = molecular target: T5, T. brucei rhodesain (Rd) (Trypanosoma brucei rhodesiense, UniProt Q95PM0); experiment: protease selectivity panel, fluorometric assay rhodesain; type: biochemical; details: 100 µM inhibitor; n. i. = no inhibition at 100 µM; read-out: Rd inhibition relative to the DMSO control
T5 construct: purchased Calbiochem, Merck Millipore
T5 sequence (Q95PM0 entry or part of it): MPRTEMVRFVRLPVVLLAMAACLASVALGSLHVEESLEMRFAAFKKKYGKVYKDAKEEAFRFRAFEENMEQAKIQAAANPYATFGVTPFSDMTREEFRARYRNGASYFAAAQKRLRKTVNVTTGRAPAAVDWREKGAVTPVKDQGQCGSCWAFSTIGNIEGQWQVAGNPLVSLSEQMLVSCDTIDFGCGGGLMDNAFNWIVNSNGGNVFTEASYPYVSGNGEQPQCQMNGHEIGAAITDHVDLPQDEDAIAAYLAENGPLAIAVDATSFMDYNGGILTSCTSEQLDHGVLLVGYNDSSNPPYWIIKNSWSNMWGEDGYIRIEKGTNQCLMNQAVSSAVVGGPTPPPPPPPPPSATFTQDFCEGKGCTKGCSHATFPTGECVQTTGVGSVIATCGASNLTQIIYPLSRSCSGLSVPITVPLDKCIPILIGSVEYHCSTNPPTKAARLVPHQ
Protocol: as §1, §2

[9] = molecular target: T1, S. aureus SrtA; experiment: MALDI-TOF-MS of SrtA treated with inhibitor; details: SrtA 10 µM, inhibitor 100 µM, 1 h room temperature
Protocol: By using MALDI-TOF mass spectrometry, we aimed to determine the mode of inhibitory action in an enzymatic context. For the native SrtA, we found a protein mass at m/z = 17,806.
An S. aureus SrtA stock solution was diluted in 100 μL assay buffer (50 mM Tris, 150 mM NaCl, 5 mM CaCl2, pH 7.50) to a final concentration of 10 µM. Compound 7a was dissolved in DMSO and added to SrtA at a final concentration of 100 μM. The protein samples were allowed to react for 1 h at room temperature and subsequently, these were desalted using Zeba^TM Spin desalting columns (7 kDa MWCO, 0.5 ml; Thermo Scientific) according to the manufacturer’s instructions. For MALDI sample preparation, the desalted solution was mixed 1:1 with a matrix combination of equal amounts α-cyano-4-hydroxycinnamic acid (20 mg/ml dissolved in 70% acetonitrile and 30% of formic acid in water at a concentration of 5%) and 2,5-dihydroxybenzoic acid (20 mg/ml dissolved in 70% acetonitrile and 30% of trifluoroacetic acid in water at a concentration of 0.1%). The resulting mixture was allowed to dry slowly on the MALDI target prior to introduction into the mass spectrometer. […] The acceleration voltage was set to 20 kV and the mass spectra were recorded in positive ion linear mode. […] Samples were measured at a laser power of 60% with random walk ionization across the sample spot.

[10] = in-solution reaction with free cysteine (ESI-MS / LC/MS); type: physicochemical; details: compound 100 µM, cysteine 100 µM, phosphate buffered solution pH 7.5
Protocol: Thus, we determined the point of nucleophilic thiol attack by means of ESI mass spectrometry between the reaction of compound 7a and cysteine in phosphate buffered solution at pH 7.5.
Furthermore, the influence of different solvents on the reaction of sulfonylpyrimidines with thiols in solution was investigated.
To a solution of 100 µM cysteine in phosphate-buffered saline (1×, pH 7.5), compound 5a or 7a (100 μM, 5% DMSO) was added and incubated for 10 min at room temperature. The negative labeling control was performed by mock treatment with DMSO. Samples were analyzed by LC/MS using an Agilent 1100 series HPLC system with an Agilent Poroshell 120 EC-C18 column (150 × 2.10 mm 4 μm; mobile phase: ACN/H2O 45:55 + 0.1% formic acid; flow rate: 0.4 ml/min) and electron spray ionization with the Agilent 1100 series LC/MSD Trap in positive ionization mode.

[11] = phosphate buffer (1×PBS) pH 7.5

SMILES	SrtA inhibition [1] [%]	k inact [2]	KI (inactivation) [2] [µM]	k 2nd [2]	inhibition at 100 µM [3] [%]	inhibition at 100 µM [4] [%]	SrtA inhibition (in words) ([2]; final inhibitor concentration of 300 µM)	inhibition at 100 µM ([2]; read-out: SrtA inhibition relative to the DMSO control) [%]	k chem vs. glutathione [5] [M^−1min-^1]	inhibition at 100 µM [6] [%]	Cysteine k chem ([7]; bicarbonate buffered solution pH 7.5) [M⁻¹ min⁻¹]	Cysteine k chem [7, 11]	inhibition at 100 µM [8] [%]	S. I. (k 2nd/k chem) ([2]; SrtA k 2nd over cysteine k chem)	covalent modification of SrtA (in words) [9]	time to quantitative reaction with cysteine [10]
CS(=O)(=O)c1ncc(Cl)c(C(=O)Nc2ccccc2Cc2ccccc2)n1 [Compound 4]	97	0.00065 s⁻¹ and 0.0006 s⁻¹ and 0.00065 ± 0.00007 s⁻¹	47.1 ± 15.7	870 M⁻¹ min⁻¹ and 870 ± 170 M⁻¹ min⁻¹	–	–	–	–	–	–	–	–	–	–	–	–
CS(=O)(=O)c1ncc(Cl)c(C(=O)O)n1 [Compound 5c]	–	–	–	–	6.6	5.8	no SrtA inhibition	19.6	82	7.7	21.9 ± 1.27	63 M⁻¹ min⁻¹ and 63.0 ± 2.01 M⁻¹ min⁻¹	20	–	–	–
CS(=O)(=O)c1ncc(Br)c(C(=O)Nc2cccc(C(=O)c3ccccc3)c2)n1 [Compound 7a]	–	0.01493 ± 0.00132 s⁻¹	32 ± 5.07	28,185 ± 2,117 M^−1min^−1	–	–	–	–	–	–	–	104.9 ± 22.5 M⁻¹ min⁻¹	–	268	quantitative conversion	less than 10 min
